Results as given in publication PMC7822874, “Chemoprotective antimalarials identified through quantitative high-throughput screening of Plasmodium blood and liver stage parasites” (Scientific Reports, 2021).
Several values for one entry are separate records, joined by “and”; a condition that tells them apart may be missing. Identical values can stand only once. Like-named read-outs stand apart in the source and are kept apart here.

Tests used:
[1] = test system: P. falciparum Dd2 Cytb G131S; test: SYBR Green ABS proliferation assay, NCGC00374598 selected clone C11; assay type: cell-based, Plasmodium falciparum; settings: second value triple, c6, […]; for AC50: Plasmodium falciparum, DD2, cytochrome b mutant line, read-out: log AC50, mean (converted); for log AC50, mean: cytochrome b mutant line
In short: (§1)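 Asexual blood-stage proliferation of cytochrome b-mutant Dd2 clones after 72 h compound exposure at 37 °C in low-oxygen gas, quantified as control-normalized SYBR Green-I fluorescence; differences tested by two-sided t-test.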

[2] = test system: P. falciparum Dd2 Cytb F123L; test: SYBR Green ABS proliferation assay, NCGC00473217 selected clone G08; assay type: cell-based, Plasmodium falciparum; parameters: log AC50, mean: unit: log10(M); settings: fifth value triple, c15, […]; for AC50: Plasmodium falciparum, DD2, cytochrome b mutant line, read-out: log AC50, mean (converted); for log AC50, mean: cytochrome b mutant line
Procedure: As resistance selection studies implicated the parasite cytochrome bc1 complex in mediating reduced parasite susceptibility to both NCGC00473217 and NCGC00374598, we leveraged these drug-selected parasites to test for altered drug response to a panel of antimalarial compounds.
The P. falciparum parasite Dd2 line was cultured in vitro using standard conditions. […] Tissue culture flasks and assay plates were incubated at 37 °C under a gas mixture of 5% CO2, 5% O2 and 90% N2. […] Significant differences were assessed using two-sided Student’s t-tests. All HTS assays were stopped and read at 72 h. Percent response values represent relative growth as judged by SYBR Green-I fluorescence intensity values normalized to controls.
Fresh uninfected RBCs (0.5% hematocrit) were added on day 7 and media was changed every other day. […] Resistant parasites were maintained under drug media at a volume of 50 mL until a high parasitemia (> 5%) was achieved. Aliquots of the bulk resistant cultures were frozen in cryovials before cloning by limiting dilution in 96-well plates (seeded at 0.25 or 0.5 parasites/well)[70]. After 3 weeks of cloning, we screened for positive wells by flow cytometry with SYBR Green-stained cells. […] Parasites were harvested by saponin lysis at the trophozoite stage and genomic DNA was extracted using the QIAamp DNA Blood Midi Kit (Qiagen, Germantown, MD)[71].

[3] = test system: P. falciparum Dd2 Cytb V259L; test: SYBR Green ABS proliferation assay, NCGC00473217 selected clone F06; assay type: cell-based, Plasmodium falciparum; parameters: log AC50, mean: unit: log M; settings: third value triple, c9, […]; for AC50: Plasmodium falciparum, DD2, cytochrome b mutant line, read-out: log AC50, mean (converted); for log AC50, mean: cytochrome b mutant line
In short: as §1

[4] = test system: P. falciparum Dd2 Cytb A122D; test: SYBR Green ABS proliferation assay, NCGC00473217 selected clone F12; assay type: cell-based, Plasmodium falciparum; parameters: log AC50, mean: unit: Log[M]; settings: fourth value triple, c12, […]; for AC50: Plasmodium falciparum, DD2, cytochrome b mutant line, read-out: log AC50, mean (converted); for log AC50, mean: cytochrome b mutant line
In short: as §1

[5] = test system: luciferase-expressing P. berghei liver stage parasites in HepG2 cells; test: Inhibition of liver-stage development assay (ILSDA), Method 2 (WRAIR, 96-well); assay type: cell-based, Plasmodium berghei; settings: for AC50: Plasmodium berghei; for Activity direction (Decrease / Inactive): P. berghei liver stage
[6] = test system: Plasmodium falciparum Dd2 asexual blood stage parasites; test: microbe, parasite or virus in culture; parameters: species or system Plasmodium falciparum Dd2 in human erythrocytes; single determination (one 11-point concentration-response curve); settings: Plasmodium falciparum, DD2, Erythrocyte, 72 h; read-out: AC50
[7] = test system: T1, Plasmodium falciparum Dd2-attB-ScDHODH (transgenic line expressing yeast DHODH), asexual blood stages; test: organism not typed; parameters: replicate k of 3 (each line is one of three independent assays; the three lines of one compound and parasite line follow each other); settings: 72 h, n = 1
T1 construct: Dd2-attB-ScDHODH, the transgenic line that expresses yeast DHODH
In short: (§2)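 The transgenic line overexpresses fumarate-dependent yeast DHODH, bypassing parasite mETC and ubiquinone-dependent parasite DHODH. A subset of compounds was run in three independent assays on both lines, and line differences were tested by two-sided Student's t-test.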

[8] = test system: T2, Plasmodium falciparum Dd2-attB (parental line), asexual blood stages; test: microbe, parasite or virus in culture; parameters: replicate k of 3 (each line is one of three independent assays; the three lines of one compound and parasite line follow each other); settings: n = 1; for Individual replicates / Log AC50 (M): 72 h
T2 construct: Dd2-attB, the isogenic parental line
In short: as §2

For `COc1ccc(-c2nc(C3CC3)nc3c2CCN(Cc2cc(C)on2)CC3)cc1` [NCGC00374666-01], which AC50 [1] is on record?
Its AC50 is 8.09 µM.

What about the AC50 [2] of the same molecule?
The AC50 was 5.31 µM.

And the AC50 [3]?
Its AC50 is 8.09 µM.

And the AC50 [4]?
The AC50 was 6.93 µM.

And the “Max Resp (signal direction of the dose response)” value ([5]; Method 2, Decrease = decreasing P. berghei viability with dose, Increase = increasing signal, Inactive = no dose response)?
Its value is “Decrease”.

And the AC50 ([5]; HepG2, Method 2, Hill fit, 50% of maximum activity response, read-out: AC50)?
Its AC50 is 0.794 µM.

What about the AC50 ([5]; HepG2, Method 2, log10 of molar AC50 from Hill fit, read-out: Log AC50 (converted)) of the same molecule?
The AC50 was 0.794 µM.

What does the source list for `CCCN1C(c2ccccc2)=NS(=O)(=O)c2cc(NC(=O)c3cccs3)ccc21` [NCGC00532332-01]?
AC50 [1]: 0.861 µM; AC50 [2]: 2 µM; AC50 [3]: 4.32 µM; AC50 [4]: 1.53 µM; Activity direction (Decrease / Inactive) ([5]; Method 2, dose response): Decrease; AC50 ([5]; HepG2, P. berghei liver stage, Method 2, dose response, read-out: AC50): 0.035 µM; AC50 ([5]; HepG2, P. berghei liver stage, Method 2, dose response, read-out: Log AC50 (converted)): 0.0355 µM

For `CC(C)c1nc2c(c(-c3ccc(O)cc3)n1)CCN(Cc1ccccc1C(F)(F)F)CC2` [NCGC00480324-01], which AC50 [1] is on record?
Its AC50 is 4.06 µM.

What about the AC50 [2] of the same molecule?
Its AC50 is 4.22 µM.

And the AC50 [3]?
The AC50 was 4.73 µM.

What about the AC50 [4] of the same molecule?
The AC50 was 4.55 µM.

And the AC50 [6]?
The AC50 was 4.73 µM.

How did the “log AC50, mean” value [1] turn out when `O=C(O)C(F)(F)F.Oc1ccc(-c2nc(C3CC3)nc3c2CCN(Cc2ccc(F)cc2)CC3)cc1` [NCGC00480352-02] was run?
The value was -5.315.

And the “log AC50, mean” value [2]?
The value was -5.432.

And the “log AC50, mean” value [3]?
The value was -5.399.

What about the “log AC50, mean” value [4] of the same molecule?
The value was -5.349.

What about the “Individual replicates / Log AC50 (M)” value [7] of the same molecule?
The value was -5.0486 Log AC50 (M) (2×) and -4.8486 Log AC50 (M).

And the “Individual replicates / Log AC50 (M)” value [8]?
The value was -4.9986 Log AC50 (M) and -5.0986 Log AC50 (M) (2×).

For `c1ccc(OCCNc2nc(-c3cccnc3)nc3c2CCNCC3)cc1` [NCGC00443183-01], which AC50 [1] is on record?
Its AC50 is 6.93 µM.

What about the AC50 [2] of the same molecule?
Its AC50 is 5.11 µM.

What about the AC50 [3] of the same molecule?
The AC50 was 5.73 µM.

What about the AC50 [4] of the same molecule?
The AC50 was 7.21 µM.

What about the “Activity direction (Decrease / Inactive)” value ([5]; Method 2, dose response) of the same molecule?
The value was “Inactive”.

Which “log AC50, mean” value [1] does the source give for `O=C(O)C(F)(F)F.Oc1ccc(-c2nc(C3CC3)nc3c2CCN(CC2CCCCC2)CC3)cc1` [NCGC00480361-02] here?
The value was -5.282.

And the “log AC50, mean” value [2]?
The value was -6.465.

What about the “log AC50, mean” value [3] of the same molecule?
Its value is -5.515.

What about the “log AC50, mean” value [4] of the same molecule?
The value was -5.499.

What about the “Individual replicates / Log AC50 (M)” value [7] of the same molecule?
Its value is -5.0486 Log AC50 (M) and -5.1986 Log AC50 (M).

And the “Individual replicates / Log AC50 (M)” value [8]?
Its value is -5.2486 Log AC50 (M).

For `O=c1[nH]c(N2CCOCC2)nc2c1CCN(Cc1cc(Br)ccc1F)CC2` [NCGC00440663-01], which AC50 [1] is on record?
The AC50 was 6.68 µM.

What about the AC50 [2] of the same molecule?
Its AC50 is 3.61 µM.

And the AC50 [3]?
The AC50 was 23.7 µM.

And the AC50 [4]?
Its AC50 is 4.91 µM.

And the AC50 [6]?
Its AC50 is 5.31 µM.

How did the AC50 [1] turn out when `O=C(c1ccc(C(F)(F)F)cc1)N1CCc2nc(C3CC3)nc(-c3ccc(Cl)cc3)c2CC1` [NCGC00476963-01] was run?
The AC50 was 12.8 µM.

And the AC50 [2]?
Its AC50 is 8.41 µM.

And the AC50 [3]?
The AC50 was 15.8 µM.

What about the AC50 [4] of the same molecule?
Its AC50 is 15 µM.

What about the AC50 [6] of the same molecule?
Its AC50 is 13.3 µM.

Which AC50 [1] does the source give for `CN(C)c1nc2c(c(=O)[nH]1)CCN(Cc1ccc(Br)cc1)CC2` [NCGC00440593-01] here?
The AC50 was 5.51 µM.

And the AC50 [2]?
Its AC50 is 1.33 µM.

What about the AC50 [3] of the same molecule?
The AC50 was 9.79 µM.

And the AC50 [4]?
The AC50 was 4.55 µM.

And the AC50 [6]?
The AC50 was 13.3 µM.

With `CC(C)c1nc2c(c(-c3ccc(O)cc3)n1)CCN(Cc1ccc(C(F)(F)F)cc1)CC2` [NCGC00480320-01] as the molecule, how does the AC50 [1] read?
The AC50 was 3.76 µM.

And the AC50 [2]?
Its AC50 is 4.55 µM.

What about the AC50 [3] of the same molecule?
Its AC50 is 4.73 µM.

What about the AC50 [4] of the same molecule?
The AC50 was 4.91 µM.

And the AC50 [6]?
Its AC50 is 5.31 µM.

Which AC50 [1] does the source give for `Oc1ccc(-c2nc(C3CC3)nc3c2CCN(Cc2ccc(F)cc2)CC3)cc1` [NCGC00480352-01] here?
Its AC50 is 7.78 µM.

What about the AC50 [2] of the same molecule?
Its AC50 is 6.93 µM.

And the AC50 [3]?
Its AC50 is 7.5 µM.

What about the “log AC50, mean” value [4] of the same molecule?
Its value is -4.975.

And the “Individual replicates / Log AC50 (M)” value [7]?
The value was -5.1486 Log AC50 (M) (2×) and -5.1986 Log AC50 (M).

What about the “Individual replicates / Log AC50 (M)” value [8] of the same molecule?
The value was -5.2986 Log AC50 (M) and -5.2486 Log AC50 (M).

And the AC50 ([8]; Plasmodium falciparum, DD2, 72 h, read-out: Individual replicates / Log AC50 (converted))?
The AC50 was 5.64 µM.

Which results are given for `CC(C)c1nc2c(c(-c3ccc(O)cc3)n1)CCN(Cc1cccc3ccccc13)CC2` [NCGC00480323-01]?
AC50 [1]: 4.06 µM; AC50 [2]: 4.22 µM; AC50 [3]: 4.55 µM; AC50 [4]: 4.73 µM; Activity direction (Decrease / Inactive) ([5]; Method 2, dose response): Inactive

For `O=c1[nH]c(N2CCOCC2)nc2c1CCN(Cc1ccccc1Br)CC2` [NCGC00440625-01], which AC50 [1] is on record?
The AC50 was 6.43 µM.

And the AC50 [2]?
The AC50 was 1.19 µM.

What about the AC50 [3] of the same molecule?
The AC50 was 9.44 µM.

What about the AC50 [4] of the same molecule?
The AC50 was 6.93 µM.

And the AC50 [6]?
Its AC50 is 15 µM.

How did the AC50 [1] turn out when `CCc1nc2c(c(-c3ccc(O)cc3)n1)CCN(Cc1ccccc1C(F)(F)F)CC2` [NCGC00480300-01] was run?
The AC50 was 3.9 µM.

What about the AC50 [2] of the same molecule?
Its AC50 is 4.06 µM.

What about the AC50 [3] of the same molecule?
Its AC50 is 4.73 µM.

And the AC50 [4]?
The AC50 was 4.22 µM.

And the AC50 [6]?
Its AC50 is 2.99 µM.
